The values below come from PubChem BioAssay AID652047 (Broad Institute, 2013).

Activity calls are given as the source filed them.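 How the source made its calls: active means fitted curve reaches activity change of -35% signal drop at a concentration below twice the top valid tested dose; inactive means the rest, including activity in the opposite direction.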

The nature of this experiment: antimalarial activity against intraerythrocytic 3D7 parasites – 3D7 strain, red blood cells, SYBR Green, cherry-picked, dose response (AID 652047).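 Further: 0% = untreated neutral control wells and -100% = mefloquine positive control wells.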 As to conditions: P. falciparum 3D7 in RBCs, SYBR Green DNA fluorescence.

As for `CC1Oc2ccccc2C=C1/C=N/Nc1ccc(C(=O)O)cc1` (configuration not stated), the activity change, negative = inhibition (at 16 µM (top of the series)) was 17% (inactive). As for `Nc1nc2sc3c(c2c(=O)s1)CCCC3`, for the setting “at 50 µM (top of the series)”, the activity change, negative = inhibition was -14.6% (inactive).

In the case of `FC(F)(F)c1cccc(N2CCc3cn[nH]c32)c1`, the activity change, negative = inhibition (at 50 µM (top of the series)) was -2.82% (inactive). Consider `Cc1cc(Nc2ccccc2)nn1C(=O)c1ccccc1`, for which the activity change, negative = inhibition (at 50 µM (top of the series)) was -5.49% (inactive).

In the case of `CC(C)NC(=O)NC(=O)COC(=O)c1ccc([N+](=O)[O-])cc1Cl`, the activity change, negative = inhibition (at 50 µM (top of the series)) was 16.4% (inactive). For `CC(C)CSc1n[nH]c(=S)s1`, the activity change, negative = inhibition (at 50 µM (top of the series)) was -1.47% (inactive).

Turning to `O=c1c(CO)cc(CO)cc(CO)c1O`, the activity change, negative = inhibition (at 50 µM (top of the series)) was -103% (inactive).
